The text below walks through data of US4122179A, “Acid addition salts of vincamine and apovincamine” (priority 1976, dated 1978).

Data set [1] is described as follows: Hematic levels at different times after oral administration (absorption). Conditions: 100 mg/kg expressed as vincamine/apovincamine, 5% carboxymethyl cellulose suspension. In kind it is in vivo, Wistar rat. The essentials:
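Wistar rats dosed orally at 100 mg/kg (expressed as vincamine or apovincamine) as a suspension in 5% carboxymethyl cellulose. Blood levels measured chromatographically at 0, 30, 120, 240, 480 min, 10 h and 12 h to define absorption and time of maximum concentration.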

A short description of data set [2]: LD50 / acute toxicity, intraperitoneal route. Type of data set: in vivo. The note with it: i.p.; for Toxicity (Gleason): Gleason class in words, classes not defined.
Another data set is described as follows: Solubility. The note with it: qualitative; for solubility in alcohol: alcohol (ethyl alcohol). Type of data set: physicochemical.
Another data set concerns vertebral arteria. The data set is described as follows: Cerebral vasodilating activity: hematic flow at the vertebral arteria after i.v. administration. Type of data set: in vivo. The note with it: i.v. (femoral vein), 5 mg/kg of vincamine/apovincamine, anesthetized dog, 4 animals per compound. In outline: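 In anesthetized dogs, groups of 4 per compound, left vertebral artery blood flow recorded with periarterial electromagnetic flowmeters after i.v. dosing. Values are percent change in flow.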

`CC[C@@]12C=C(C(=O)OC)n3c4c(c5ccccc53)CCN(CCC1)[C@H]42` [Example 21.b, Apovincamine caproate] came in with a Max. conc. time in data set [1] (100 mg/kg) of 60 min. Besides, in data set [2], the LD50 turned out to be 1900 mg/kg and the “Toxicity (Gleason)” value is on record as “light”. Besides, in “Solubility”, the solubility in alcohol entry is reported as “insoluble” and the solubility in water result is recorded as “insoluble”. Moreover, the “% increase (percent variation of hematic flow, left vertebral arteria)” value in the data set with vertebral arteria (5 mg/kg) was found to be 36.4%.

Consider `CC[C@]12CCCN3CCc4c(n(c5ccccc45)[C@@](O)(C(=O)OC)C1)[C@@H]32` [Example 29.a, Vincamine dihydroxyphenylalanine (DOPA)], for which the Max. conc. time in data set [1] (100 mg/kg) came out at 20 min. In data set [2], the LD50 was found to be 1500 mg/kg and the “Toxicity (Gleason)” value was “light”. For the same compound, in “Solubility”, the “solubility in the common (organic) solvents” value (from here on “solubility in the common”) is listed as “practically insoluble” and the solubility in water entry is “practically insoluble”. For the same compound, the “% increase (percent variation of hematic flow, left vertebral arteria)” value in the data set with vertebral arteria (5 mg/kg) came out at 38.2%.

In turn, “Vincamine pectin (1:1 adduct) [Example 30.a]” had a Max. conc. time in data set [1] of 20 min. Also, in data set [2], the LD50 was 2000 mg/kg and the “Toxicity (Gleason)” value is “negligible”. Further, in “Solubility”, the “solubility in the common” value is given as “insoluble” and the solubility in water entry was “insoluble”. Also, in the data set with vertebral arteria, the “% increase (percent variation of hematic flow, left vertebral arteria)” value came to 40.0%.

In data set [1] (100 mg/kg), `CC[C@]12CCCN3CCc4c(n(c5ccccc45)[C@@](O)(C(=O)OC)C1)[C@@H]32` [Example 28.a, Vincamine salicylate] showed a Max. conc. time of 240 min. Also, in data set [2], the LD50 was found to be 700 mg/kg and the “Toxicity (Gleason)” value is recorded as “modest”. Also, in “Solubility”, the solubility in alcohol entry is “soluble”, the “solubility in the common” value is “insoluble” and the solubility in water entry is reported as “insoluble”. In addition, the “% increase (percent variation of hematic flow, left vertebral arteria)” value in the data set on vertebral arteria (5 mg/kg) is 25.7%.

For the compound `CC[C@]12CCCN3CCc4c(n(c5ccccc45)[C@@](O)(C(=O)OC)C1)[C@@H]32` [Example 12.a, Vincamine furoate (furan-2-carboxylate)], in data set [1] (100 mg/kg), the Max. conc. time was 120 min. Also, in data set [2], the LD50 stood at 800 mg/kg and the “Toxicity (Gleason)” value was “modest”. Further, in “Solubility”, the solubility in alcohol result is given as “insoluble” and the solubility in water result was “insoluble”. For the same compound, the “% increase (percent variation of hematic flow, left vertebral arteria)” value in the data set on vertebral arteria (5 mg/kg) is on record as 24.8%.

With `CC[C@@]12C=C(C(=O)OC)n3c4c(c5ccccc53)CCN(CCC1)[C@H]42` [Example 28.b, Apovincamine salicylate], the Max. conc. time in data set [1] (100 mg/kg) turned out to be 240 min. In data set [2], the LD50 is given as 750 mg/kg and the “Toxicity (Gleason)” value was “modest”. For the same compound, the solubility in alcohol result in the data set “Solubility” is recorded as “soluble”. Moreover, the “% increase (percent variation of hematic flow, left vertebral arteria)” value in the data set on vertebral arteria (5 mg/kg) came to 26.7%.

In data set [1] (100 mg/kg), `CC[C@]12CCCN3CCc4c(n(c5ccccc45)[C@@](O)(C(=O)OC)C1)[C@@H]32` [Example 10.a] returned a Max. conc. time of 240 min. For the same compound, in data set [2], the LD50 is 1300 mg/kg and the “Toxicity (Gleason)” value was “light”. For the same compound, in the data set “Solubility”, the solubility in alcohol result is “insoluble” and the solubility in water result is recorded as “insoluble”. The “% increase (percent variation of hematic flow, left vertebral arteria)” value with vertebral arteria (5 mg/kg) stood at 27.9%.

On to `CC[C@@]12C=C(C(=O)OC)n3c4c(c5ccccc53)CCN(CCC1)[C@H]42` [Example 22.b, Apovincamine caprate], for which the Max. conc. time in data set [1] (100 mg/kg) was 240 min. In data set [2], the LD50 is on record as 1900 mg/kg and the “Toxicity (Gleason)” value was “light”. Also, in “Solubility”, the solubility in alcohol result is “insoluble” and the solubility in water entry is reported as “insoluble”. In addition, the “% increase (percent variation of hematic flow, left vertebral arteria)” value with vertebral arteria (5 mg/kg) came out at 28.2%.

Turning to `CC[C@@]12C=C(C(=O)OC)n3c4c(c5ccccc53)CCN(CCC1)[C@H]42` [Example 29.b, Apovincamine dihydroxyphenylalanine], the Max. conc. time in data set [1] (100 mg/kg) amounted to 120 min. In data set [2], the median lethal dose (LD50) amounted to 900 mg/kg and the “Toxicity (Gleason)” value is on record as “light”. For the same compound, the “solubility (solvent not given)” value in the data set “Solubility” (solvent not stated) is on record as “insoluble”. The “% increase (percent variation of hematic flow, left vertebral arteria)” value in the data set on vertebral arteria (5 mg/kg) is recorded as 41.3%.

As for `CC[C@]12CCCN3CCc4c(n(c5ccccc45)[C@@](O)(C(=O)OC)C1)[C@@H]32` [Example 11.a, Vincamine 4-acetamidobutyrate], in data set [1] (100 mg/kg), the Max. conc. time came out at 480 min. In addition, in data set [2], the LD50 is 700 mg/kg and the “Toxicity (Gleason)” value is “modest”. Also, in “Solubility”, the solubility in alcohol entry is reported as “insoluble” and the solubility in water entry is recorded as “insoluble”. The “% increase (percent variation of hematic flow, left vertebral arteria)” value in the data set with vertebral arteria (5 mg/kg) is recorded as 29.3%.

Turning to `CC[C@@]12C=C(C(=O)OC)n3c4c(c5ccccc53)CCN(CCC1)[C@H]42` [Example 7.b, Apovincamine 3,5-dihydroxybenzoate], in data set [1] (100 mg/kg), the Max. conc. time came out at 240 min. In data set [2], the LD50 stood at 750 mg/kg and the “Toxicity (Gleason)” value is listed as “modest”. Further, in “Solubility”, the solubility in alcohol result is “soluble” and the solubility in water result is reported as “insoluble”. For the same compound, in the data set on vertebral arteria (5 mg/kg), the “% increase (percent variation of hematic flow, left vertebral arteria)” value is on record as 26.0%.
